Test results taken from US20060270664A1, “Fluorescent fused-ring triazoles that inhibit cell proliferation and uses thereof” (priority 2004, published 2006).

Columns and labels:
[1] = Fluorescence excitation and emission spectra (Perkin-Elmer LS-5B Luminescence Spectrometer); format: physicochemical; details: 10 micromolar solution
Description: Excitation and emission spectra of a 10 micromolar solution of compounds IIa and IIb were determined using a Perkin-Elmer LS-5B Luminescence Spectrometer.

[2] = system: mouse PAM 212 keratinocytes; assay: Growth inhibition of tumor cells in culture, Coulter Counter cell count after 5 days; format: cell-based; details: PAM212, 120 h, read-out: IC50 of fused ring triazole (concentration inhibiting growth of cell line by 50%)
Description: (§1) Experiments were performed in accordance with the procedure described by Yurkow and Laskin (Cancer Chemother. Pharmacol. 1991 27:315-319). In these experiments, tumor cells were maintained in culture in growth medium consisting of Dulbecco's modified Eagle's medium (DMEM) supplemented with 10% fetal bovine. Tumor cells were plated at low density (5000 cells/well) in 6-well tissue culture dishes and allowed to adhere overnight. The medium was then replaced with phenol red-free DMEM supplemented with increasing concentrations of the compounds, with zero concentration of compound serving as the control. Six concentrations and a control were used for each inhibitor, and each concentration was tested in triplicate. After 5 days, cells were removed from the dishes and enumerated using a Coulter Counter (Coulter Electronics, Inc.). The controls and treated samples at each concentration were averaged. Data are presented as the percentage of control growth at each concentration of the compound, plus and minus the standard error. The IC50 for growth inhibition was the concentration of each compound that inhibited growth by 50%. These are depicted in Table 1.

[3] = system: mouse B16 melanoma; assay: as above; format: cell-based; details: 120 h, read-out: IC50 of fused ring triazole (concentration inhibiting growth of cell line by 50%)
Description: as §1

[4] = system: human HeLa cervical carcinoma; assay: as above; format: cell-based; details: 120 h, read-out: IC50 of fused ring triazole (concentration inhibiting growth of cell line by 50%)
Description: as §1

[5] = system: human CX-1 colon cells; assay: as above; format: cell-based; details: 120 h, read-out: IC50 of fused ring triazole (concentration inhibiting growth of cell line by 50%)
Description: as §1

SMILES	Emission peak [1] [nm]	IC50 [2] [µM]	IC50 [3] [µM]	IC50 [4] [µM]	IC50 [5] [µM]	Excitation peaks [1] [nm]
C1=Nn2c(nnc2-c2ccncc2)S/C1=C\c1ccccc1 [Compound IIa, 3-(4-pyridyl)-7-(phenylmethylene)-s-triazolo[3,4-b] [1,3,4]-thiadiazine]	358	10	9	4	17	
C1=Nn2c(nnc2-c2ccccn2)S/C1=C\c1ccccc1 [Compound IIb, 3-(2-pyridyl)-7-(phenylmethylene)-s-triazolo[3,4-b] [1,3,4]-thiadiazine]	320	18	15	9	30	249
C1=Nn2c(nnc2-c2cccs2)S/C1=C\c1ccccc1 [Compound IId, 3-(2-thienyl)-7-(phenylmethylene)-s-triazolo[3,4-b] [1,3,4]-thiadiazine]		18	23	28	20	
